Where two headings read alike, the source gives them in different places.
Columns and labels:
SARS-CoV-2 (KCDC03) = experiment: In vitro antiviral activity against SARS-CoV-2 in Vero E6 cells (CCIF viral yield, RT-qPCR); type: cell-based; conditions: for SI (CC50/IC50) / IC50: SARS-CoV-2 (KCDC03); for IC50: Vero E6 cells; for virus replication (genome copy number, infectious progeny): SARS-CoV-2-infected Vero E6, 20 µM at 18 hpi
[1] = system: Bovine coronavirus (KWD20); experiment: In vitro antiviral activity against BCoV in HRT-18G cells (CCIF viral yield); type: cell-based; conditions: for IC50: HRT-18G cells
Description: (§1) Cells were grown in 6- or 12-well plates or 8-well chamber slides to the desired confluency and then washed twice with phosphate-buffered saline (PBS, pH 7.4). They were then mock-inoculated with medium only or virus-inoculated with various multiplicities of infection (MOI): MOI of 0.01 or 1 FFU/cell for IAV, and MOI of 0.01 or 0.1 FFU/cell for SARS-CoV-2, BCoV, PEDV, PRRSV, and PSaV. Thereafter, each inoculum was absorbed for 1 h, and the cells were washed twice with PBS (pH 7.4). As shown in Supplementary Table 4, further treatments and incubations varied dependent on the virus species used. Cells treated with PKA inhibitor H89 (5 μM or 50 μM concentration) or vehicle-treated immediately after absorption of IAV at an MOI of 1 FFU or SARS-CoV-2 at an MOI of 0.1 FFU were incubated for 24 and 36 h, respectively, and each cell lysate was used for the detection of HSL and pHSL by western blot analysis as described below. Cells treated with lipase inhibitors at the median incubation time of IAV or SARS-CoV-2 as described in the above condition were supplemented with LA, OA, or PA at 100 µM concentration and left incubation for further median incubation time. The cells were used to assess levels of intracellular TAGs, cholesterol, FFAs, glycerol, FAO, proinflammatory cytokines as well as viral genome copy numbers and virus titers as described below and in Supplementary Information.
(§2) To determine the antiviral effects of chemicals, serial 10-fold dilutions of each cell culture supernatant after three cycles of freezing and thawing cycles were prepared in appropriate medium supplemented with 100 U/mL penicillin and 100 μg/mL streptomycin as described above. To determine the viral infectivity titer in lung tissues from the hamsters challenged with or without SARS-CoV-2, or administered with or without inhibitors as described above, aseptically sampled lungs from five hamsters per group at day five post-virus infection were harvested. Cleared supernatants from lung tissue as produced from IAV-infected mice above were serially tenfold-diluted with virus growth medium. […] The cells were washed twice with PBS (pH 8.0), mounted with 60% glycerol, and observed byr inverted fluorescence microscopy. The number of cells showing a viral antigen-positive signal at the endpoint dilution were counted. IC50 was calculated using GraphPad Prism software version 8.4.2. […] CC50 data from the MTT assay and IC50 from the IF assay were both calculated using GraphPad Prism software version 8.4.2.

[2] = system: Porcine respiratory reproductive syndrome virus (LMY); conditions: for IC50: PRRSV (LMY), MARC-145 cells
[3] = In vivo toxicity in hamsters (body weight, gross and histopathological organ changes)
Description: Three groups of 3 hamsters were treated intraperitoneally with 20, 40, and 80 mg kg^-1 d^-1 of atglistatin prepared in a 100 μL vehicle [50% PEG400 in water (vol/vol)] Bid with a 12 h interval for four and a half consecutive days, respectively (Table S10). One group of 3 control anesthetized hamsters was administered intraperitoneally with 100 μL vehicle Bid with a 12 h interval for four and a half consecutive days (Table S10).
Histopathological changes in lungs, liver, kidney, heart, and spleen from the experimental mice or hamsters in each experimental group were determined as described elsewhere.^35 Briefly, each sample from the mice or hamsters in each experimental group was fixed in sufficient 10% neutral formalin at 20°C for 3-4 days, washed in tap water, then trimmed, and thereafter processed in the automatic embedding machine for the dehydration and paraffin embedment. Tissue sections, prepared on slides at a thickness of 3 μm by a microtome, were used for hematoxylin and eosin (H&E) staining or IHC as described below. H&E stained sections were observed under light microscopy. The morphological changes to lung, liver, kidney, heart, and spleen tissues were reviewed in a blinded manner as previous described.^35

SARS-CoV-2 KCDC03 strain = type: in vivo, Syrian hamsters
MDCK = experiment: Cytotoxicity, MTT assay, MDCK; type: cell-based, canine
Description: (§3) The cytotoxic effects of the chemicals and their solvents were tested by the MTT assay,[44] and its procedure is described in Supplementary Information.
(§4) The cytotoxic effects of the chemicals and their solvents used were tested by the MTT assay as described previously.^10 In brief, the chemicals were dissolved in DMSO to a stock concentration of 10 mM, and then freshly serially diluted in serum-free medium before being added to cell culture monolayers. The absorbance was measured using an enzyme-linked immunosorbent assay (ELISA) reader at an optical density (OD) of 570 nm. The percent cell viability was calculated using the following formula, [(ODsample˗ODblank)/(ODcontrol˗ODblank)] × 100%. According to the cell cytotoxicity data, dose-response curves were generated for the calculation of CC50 using GraphPad Prism software version 8.4.2.

[4] = system: Porcine sapovirus (Cowden); conditions: for IC50: Porcine sapovirus (Cowden), LLC-PK cells
[5] = system: proinflammatory cytokines; experiment: Proinflammatory cytokines in SARS-CoV-2-infected Vero E6 cells (RT-qPCR, ELISA); type: cell-based, African green monkey; conditions: 20 μM
MA104 = experiment: Cytotoxicity, MTT assay, MA104; type: cell-based, African green monkey
Description: as §3, §4

[6] = system: Porcine epidemic diarrhea coronavirus (QIAP1401); experiment: In vitro antiviral activity against PEDV in Vero E6 cells (CCIF viral yield); type: cell-based; conditions: for IC50: Vero E6 cells
Description: as §1, §2

Vero E6 = experiment: Cytotoxicity, MTT assay, Vero E6; type: cell-based, African green monkey
Description: as §3, §4

[7] = mouse, in vivo, ip

Row | SMILES | SI (CC50/IC50) (SARS-CoV-2 (KCDC03)) | IC50 (SARS-CoV-2 (KCDC03)) [µM] | virus replication (genome copy number, infectious progeny) (SARS-CoV-2 (KCDC03)) | SI (CC50/IC50) [1] | IC50 [1] [µM] | SI (CC50/IC50) [2] | IC50 [2] [µM] | CC50 (MDCK) [µM] | SI (CC50/IC50) [4] | IC50 [4] [µM] | levels of TNF-α, IL-6, and MCP-1 [5] | CC50 (MA104) [µM] | SI (CC50/IC50) [6] | IC50 [6] [µM] | CC50 (Vero E6) [µM] | also measured
1 | CN(C)C(=O)Nc1cccc(-c2ccc(N(C)C)cc2)c1 [Atglistatin] | 154 | 1.47 ± 0.12 | inhibiting the replication | 152 | 1.2 ± 0.04 | 84 | 2.53 ± 0.18 | 269 ± 3.2 | 72 | 3.11 ± 0.39 | markedly reduced | 214.5 ± 2 | 116 | 1.96 ± 0.14 | 226 ± 2.4 | toxicity, including body weight loss ([3]; 80 mg kg^-1 d^-1 atglistatin and 2.5 mg kg^-1 d^-1 remdesivir, singly or in combination): no toxicity; gross and histopathological changes in major organs (liver, lung, kidney, heart, spleen) ([3]; 20, 40, or 80 mg kg^-1 d^-1 Bid for 4.5 consecutive days): no gross and histopathological changes; overt signs of toxicity, including loss of body weight ([3]; intraperitoneal 80 mg kg^-1 d^-1): did not induce any overt signs of toxicity; gross lung lesions (SARS-CoV-2 KCDC03 strain; […], different concentrations (20, 40, 80 mg kg^-1 d^-1)): improved gross lung lesions in a dose-dependent manner; FFA and glycerol release from LDs in lungs (SARS-CoV-2 KCDC03 strain; hamster, in vivo): inhibition of FFA and glycerol release; IFN-α and IFN-β production (SARS-CoV-2 KCDC03 strain; hamster, in vivo): no effect; levels of TNF-α, IL-6, and MCP-1 (SARS-CoV-2 KCDC03 strain; hamster, in vivo): reduced; reduction in lung lesions (SARS-CoV-2 KCDC03 strain; hamster, in vivo): 72%
2 | COc1nn(-c2ccc(NC(=O)OCc3ccccc3)c(C)c2)c(=O)o1 [CAY10499] | 62 | 1.54 ± 0.18 | inhibiting the replication | 14 | 7.3 ± 0.52 | 24 | 4.21 ± 0.55 | 110 ± 4.1 | 9 | 11.8 ± 2.6 | markedly reduced | 107 ± 5.6 | 30 | 3.19 ± 0.42 | 102 ± 8.3 | overt signs of toxicity, including loss of body weight [7]: did not induce any overt signs of toxicity

Reference: PMC9575645 (Signal Transduction and Targeted Therapy, 2022)
